Measurements as given in patent US20250092054A1, “FUSED PYRIDINES FOR CONTROLLING INVERTEBRATE PESTS” (FMC Corporation, priority 2021, published 2025).
Where two headings read alike, the source gives them in different places.

Experiments:
Type in all cases: in vivo
[1] = system: green peach aphid (Myzus persicae (Sulzer)); test: Test E: control of green peach aphid through contact and/or systemic means; settings: 144 h
Description: (§1) Test compounds were formulated using a solution containing 10% acetone, 90% water and 300 ppm Activator 90® non-ionic surfactant (Loveland Products, Loveland, Colorado, USA). The formulated compounds were applied in 1 mL of liquid through an atomizer nozzle positioned 1.27 cm (0.5 inches) above the top of each test unit. Test compounds were sprayed at the rates indicated, and each test was replicated three times.
For evaluating control of green peach aphid (Myzus persicae (Sulzer)) through contact and/or systemic means, the test unit consisted of a small open container with a 12-15-day-old radish plant inside. This was pre-infested by placing on a leaf of the test plant 30-40 aphids on a piece of leaf excised from a culture plant (cut-leaf method). The aphids moved onto the test plant as the leaf piece desiccated. After pre-infestation, the soil of the test unit was covered with a layer of sand.
Test compounds were formulated and sprayed at 50 and 10 ppm. After spraying of the formulated test compound, each test unit was allowed to dry for 1 hour and then a black, screened cap was placed on top. The test units were held for 6 days in a growth chamber at 19-21° C. and 50-70% relative humidity. Each test unit was then visually assessed for insect mortality.

[2] = system: cotton melon aphid (Aphis gossypii (Glover)); test: Test F: control of cotton melon aphid through contact and/or systemic means; settings: 144 h
Description: as §1
For evaluating control of cotton melon aphid (Aphis gossypii (Glover)) through contact and/or systemic means, the test unit consisted of a small open container with a 5-day-old okra plant inside. This was pre-infested with 30-40 insects on a piece of leaf according to the cut-leaf method, and the soil of the test unit was covered with a layer of sand.
Test compounds were formulated and sprayed at 50 and 10 ppm. After spraying, the test units were maintained in a growth chamber for 6 days at 19° C. and 70% relative humidity. Each test unit was then visually assessed for insect mortality.

[3] = system: corn planthopper (Peregrinus maidis (Ashmead)); test: Test C: control of corn planthopper through contact and/or systemic means; settings: 144 h, corn plant post-infested with nymphs, assessed after 6 days; for mortality at 50 ppm: sprayed at 50 ppm
Description: as §1
For evaluating control of corn planthopper (Peregrinus maidis (Ashmead)) through contact and/or systemic means, the test unit consisted of a small open container with a 3-4-day-old corn (maize) plant inside. White sand was added to the top of the soil prior to application of the test compound.
Test compounds were formulated and sprayed at 50 and 10 ppm. After spraying of the formulated test compound, the test units were allowed to dry for 1 h before they were post-infested with ˜15-20 nymphs (18-to-21-day-old). A black, screened cap was placed on the top of each test unit, and the test units were held for 6 days in a growth chamber at 22-24° C. and 50-70% relative humidity. Each test unit was then visually assessed for insect mortality.

[4] = system: potato leafhopper (Empoascafabae (Harris)); test: Test D: control of potato leafhopper through contact and/or systemic means; settings: 144 h
Description: as §1
For evaluating control of potato leafhopper (Empoascafabae (Harris)) through contact and/or systemic means, the test unit consisted of a small open container with a 5-6-day-old Soleil bean plant (primary leaves emerged) inside. White sand was added to the top of the soil, and one of the primary leaves was excised prior to application of the test compound.
Test compounds were formulated and sprayed at 50 and 10 ppm. After spraying of the formulated test compound, the test units were allowed to dry for 1 hour before they were post-infested with 5 potato leafhoppers (18-to-21-day-old adults). A black, screened cap was placed on the top of the test unit, and the test units were held for 6 days in a growth chamber at 20° C. and 70% relative humidity. Each test unit was then visually assessed for insect mortality.

[5] = sprayed at 50 ppm, pre-infested radish plant, assessed after 6 days, read-out: mortality
[6] = sprayed at 50 ppm, pre-infested okra plant, assessed after 6 days, read-out: mortality
[7] = sprayed at 10 ppm, Soleil bean plant post-infested with adults, assessed after 6 days, read-out: mortality
[8] = sprayed at 50 ppm, Soleil bean plant post-infested with adults, assessed after 6 days, read-out: mortality

CC(=O)NCc1ncc(C2=NOC(c3cccc(C(F)(F)F)c3)(C(F)(F)F)C2)c2ccoc12 (stereo not shown) [Compound 1, N-[[4-[4,5-dihydro-5-(trifluoromethyl)-5-[3-(trifluoromethyl)phenyl]-3-isoxazolyl]furo[2,3-c]pyridin-7-yl]methyl]acetamide]
≥ 80%: mortality at 50 ppm [1, 5] | mortality at 50 ppm [2, 6] | mortality at 50 ppm [3] | mortality at 10 ppm [4, 7] | mortality at 50 ppm [4, 8]

CNC(=O)[C@@H](C)NC(=O)c1cnc(C2=NOC(c3cc(Cl)cc(Cl)c3)(C(F)(F)F)C2)c2sccc12 (stereo partly drawn) [Compound 7, 7-[5-(3,5-dichlorophenyl)-4,5-dihydro-5-(trifluoromethyl)-3-isoxazolyl]-N-[(1R)-1-methyl-2-(methylamino)-2-oxo-ethyl]thieno[2,3-c]pyridine-4-carboxamide]
≥ 80%: mortality at 50 ppm ([1]; in Raphanus sativus) | mortality at 50 ppm [2] | mortality at 10 ppm [4] | mortality at 50 ppm [4]

O=C(NC1CC1)c1cnc(C2=NOC(c3cc(Cl)cc(Cl)c3)(C(F)(F)F)C2)c2sccc12 (stereo not shown) [Compound 11, N-cyclopropyl-7-[5-(3,5-dichlorophenyl)-4,5-dihydro-5-(trifluoromethyl)-3-isoxazolyl]thieno[2,3-c]pyridine-4-carboxamide]
≥ 80%: mortality at 10 ppm [4] | mortality at 50 ppm [4]

O=C(NC1CC1)c1ncc(C2=NOC(c3cc(Cl)c(F)c(Cl)c3)(C(F)(F)F)C2)c2ccoc12 (stereo not shown) [Compound 13, N-cyclopropyl-4-[5-(3,5-dichloro-4-fluorophenyl)-4,5-dihydro-5-(trifluoro-methyl)-3-isoxazolyl]furo[2,3-c]pyridine-7-carboxamide]
≥ 80%: mortality at 50 ppm ([1]; in Raphanus sativus) | mortality at 50 ppm [2] | mortality at 10 ppm [4] | mortality at 50 ppm [4]

O=C(NCC1CC1)c1ncc(C2=NOC(c3cc(Cl)c(F)c(Cl)c3)(C(F)(F)F)C2)c2ccoc12 (stereo not shown) [Compound 14, N-(cyclopropylmethyl)-4-[5-(3,5-dichloro-4-fluorophenyl)-4,5-dihydro-5-(trifluoromethyl)-3-isoxazolyl]furo[2,3-c]pyridine-7-carboxamide]
≥ 80%: mortality at 10 ppm [4] | mortality at 50 ppm [4]

CCC(=O)NCc1ncc(C2=NOC(c3cccc(C(F)(F)F)c3)(C(F)(F)F)C2)c2ccoc12 (stereo not shown) [Compound 23, N-[[4-[4,5-dihydro-5-(trifluoromethyl)-5-[3-(trifluoromethyl)phenyl]-3-isoxazolyl]furo[2,3-c]pyridin-7-yl]methyl]propanamid]
≥ 80%: mortality at 10 ppm ([1]; sprayed at 10 ppm, pre-infested radish plant, assessed after 6 days) | mortality at 50 ppm [1, 5] | mortality at 10 ppm ([2]; sprayed at 10 ppm, pre-infested okra plant, assessed after 6 days) | mortality at 50 ppm [2, 6] | mortality at 10 ppm ([3]; sprayed at 10 ppm) | mortality at 50 ppm [3] | mortality at 10 ppm [4, 7] | mortality at 50 ppm [4, 8]

O=C(NC1CC1)c1cnc(C2=NOC(c3cc(Cl)cc(Cl)c3)(C(F)(F)F)C2)c2ccsc12 (stereo not shown) [Compound 26, N-cyclopropyl-4-[5-(3,5-dichlorophenyl)-4,5-dihydro-5-(trifluoromethyl)-3-isoxazolyl]thieno[3,2-c]pyridine-7-carboxamide]
≥ 80%: mortality at 50 ppm [4]

O=C(NC1CSC1)c1cnc(C2=NOC(c3cc(Cl)cc(Cl)c3)(C(F)(F)F)C2)c2ccsc12 (stereo not shown) [Compound 27, 4-[5-(3,5-dichlorophenyl)-4,5-dihydro-5-(trifluoromethyl)-3-isoxazolyl]-N-3-thietanylthieno[3,2-c]pyridine-7-carboxamide]
≥ 80%: mortality at 50 ppm [4]

CNC(=O)[C@@H](C)NC(=O)c1ncc(C2=NOC(c3cc(Cl)c(F)c(Cl)c3)(C(F)(F)F)C2)c2c1CCC2 (stereo partly drawn) [Compound 30, 4-[5-(3,5-dichloro-4-fluorophenyl)-4,5-dihydro-5-(trifluoromethyl)-3-isoxazolyl]-6,7-dihydro-N-[(1R)-1-methyl-2-(methylamino)-2-oxoethyl]-5H-cyclopenta[c]pyridine-1-carboxamide]
≥ 80%: mortality at 50 ppm [2]
